Data from ChEMBL document CHEMBL1201862, “PubChem BioAssay data set” (2004).
Activity calls are given as the source filed them.

What was measured:
[1] = biological target: T1, Epstein-Barr nuclear antigen 1 (Epstein-Barr virus (strain B95-8) (HHV-4) (Human herpesvirus 4), UniProt P03211); assay: inhibition of EBV nuclear antigen 1 DNA binding – biochemical, fluorescence polarization, 1536-well, dose response (AID 2381); parameters: species or system human gammaherpesvirus 4;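 further: fluorescence polarization of a Cy5 DNA probe bound by EBNA-1 protein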
T1 sequence (P03211 whole entry): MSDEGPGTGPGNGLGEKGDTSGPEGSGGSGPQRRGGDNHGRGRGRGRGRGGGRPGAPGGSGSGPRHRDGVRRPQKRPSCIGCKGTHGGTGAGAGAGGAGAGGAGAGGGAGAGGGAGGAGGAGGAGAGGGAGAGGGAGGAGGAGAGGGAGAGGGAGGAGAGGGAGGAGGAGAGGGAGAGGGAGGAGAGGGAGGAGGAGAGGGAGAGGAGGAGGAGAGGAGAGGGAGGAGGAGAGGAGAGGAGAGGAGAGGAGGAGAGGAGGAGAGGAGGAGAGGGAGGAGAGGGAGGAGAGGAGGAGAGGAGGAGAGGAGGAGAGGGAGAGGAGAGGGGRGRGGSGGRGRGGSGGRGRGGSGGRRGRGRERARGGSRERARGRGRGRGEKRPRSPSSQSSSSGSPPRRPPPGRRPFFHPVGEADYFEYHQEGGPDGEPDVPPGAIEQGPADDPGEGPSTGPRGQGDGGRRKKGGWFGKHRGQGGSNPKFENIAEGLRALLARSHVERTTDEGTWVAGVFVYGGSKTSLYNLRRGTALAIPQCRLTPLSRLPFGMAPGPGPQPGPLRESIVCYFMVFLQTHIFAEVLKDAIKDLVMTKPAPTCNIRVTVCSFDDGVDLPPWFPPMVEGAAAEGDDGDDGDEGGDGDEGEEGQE

[2] = biological target: T2, Lytic switch protein BZLF1 (Epstein-Barr virus (strain B95-8) (HHV-4) (Human herpesvirus 4), UniProt P03206); assay: inhibition of BZLF1 ZTA DNA binding – biochemical, fluorescence polarization, Epstein-Barr virus, 1536-well, counter-screen for EBNA-1 inhibitor project, dose response (AID 2377); parameters: species or system human gammaherpesvirus 4;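 further: fluorescence polarization of Cy5-labelled ZRE DNA probe bound by purified Zta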
T2 sequence (P03206 whole entry): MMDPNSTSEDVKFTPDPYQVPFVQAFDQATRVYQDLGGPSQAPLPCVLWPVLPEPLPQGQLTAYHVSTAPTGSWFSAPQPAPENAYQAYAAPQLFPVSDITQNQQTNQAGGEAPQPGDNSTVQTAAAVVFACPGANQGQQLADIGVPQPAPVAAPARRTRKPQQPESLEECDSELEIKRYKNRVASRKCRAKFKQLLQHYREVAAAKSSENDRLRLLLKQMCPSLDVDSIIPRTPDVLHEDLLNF

[3] = biological target: T3, Carboxy-terminal domain RNA polymerase II polypeptide A small phosphatase 1 (Homo sapiens, UniProt Q9GZU7); assay: CTDSP1 inhibitors, concentration-response, biochemical, absorbance readout, ultra-high-throughput screen actives (AID 540297); type: functional
T3 sequence (Q9GZU7 whole entry): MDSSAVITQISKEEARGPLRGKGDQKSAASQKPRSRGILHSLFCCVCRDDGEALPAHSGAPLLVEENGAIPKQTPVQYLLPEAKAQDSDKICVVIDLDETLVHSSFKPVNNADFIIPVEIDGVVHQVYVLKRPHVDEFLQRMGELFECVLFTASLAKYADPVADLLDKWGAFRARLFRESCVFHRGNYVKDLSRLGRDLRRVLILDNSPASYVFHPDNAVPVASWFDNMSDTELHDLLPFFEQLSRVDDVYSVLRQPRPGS

Estrogen receptor beta [4] = biological target: T4, Estrogen receptor beta (Homo sapiens, UniProt Q92731);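 further: recombinant ER-beta bound to coactivator SRC1 peptide in presence of estradiol agonist; inhibitors block coactivator peptide binding and lower the FRET signal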
Estrogen receptor beta [5] = biological target: T4, Estrogen receptor beta; assay: blockers of SRC-3 recruitment to ERβ – biochemical, ELISA, streptavidin-HRP readout, orthogonal assay, confirmation (AID 1060)
Estrogen receptor = biological target: T5, Estrogen receptor (Homo sapiens, UniProt P03372); assay: ERα coactivator recruitment enhancers – biochemical, TR-FRET, ERα LBD, dose response (AID 737)
T5 sequence (P03372 whole entry): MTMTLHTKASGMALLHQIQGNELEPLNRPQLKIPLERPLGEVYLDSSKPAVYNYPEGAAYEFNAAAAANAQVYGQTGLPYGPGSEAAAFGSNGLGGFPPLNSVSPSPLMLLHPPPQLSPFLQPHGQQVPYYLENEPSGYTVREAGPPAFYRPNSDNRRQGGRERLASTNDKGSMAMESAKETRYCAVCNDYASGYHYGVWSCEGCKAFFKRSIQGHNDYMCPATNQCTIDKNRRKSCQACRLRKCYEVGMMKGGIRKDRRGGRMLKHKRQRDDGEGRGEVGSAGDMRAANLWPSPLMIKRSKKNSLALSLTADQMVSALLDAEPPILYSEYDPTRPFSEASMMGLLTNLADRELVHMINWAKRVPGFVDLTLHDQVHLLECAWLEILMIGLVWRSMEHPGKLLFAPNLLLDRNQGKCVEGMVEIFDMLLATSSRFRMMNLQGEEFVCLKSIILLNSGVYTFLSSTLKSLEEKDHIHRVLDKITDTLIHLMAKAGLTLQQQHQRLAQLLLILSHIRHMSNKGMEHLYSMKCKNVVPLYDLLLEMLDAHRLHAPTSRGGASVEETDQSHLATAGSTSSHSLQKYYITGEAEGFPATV

[6] = viability loss in THP-1 monocytes – THP-1 cells, cytotoxicity control for Vif-APOBEC3G degradation inhibitor project, dose response (AID 1117359); type: functional; details: THP-1
[7] = growth inhibition of yeast DHODH-expressing 3D7 parasites – SYBR Green, dry powder samples, dose response (AID 1159570); type: functional, cell-based;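 further: parasite growth measured after 72 hours of compound exposure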
[8] = toxicity to human HepG2 hepatoma cells – cell-based, plate reader, dry powder samples, cytotoxicity control, dose response (AID 1159569); type: functional;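 further: inhibitor potency with signal falling toward the positive control level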
[9] = Dd2 malaria parasite growth inhibition potency – SYBR Green, dry powder samples, dose response (AID 1159566); type: functional, cell-based;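 further: potency for growth inhibition with lower SYBR green DNA signal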
[10] = toxicity to human hepatoma HepG2 cells – cell-based, cherry-picked samples, cytotoxicity control, dose response (AID 1159577); type: functional
[11] = P. falciparum Dd2 growth inhibitors, dose response, SYBR Green, cherry-picked samples (AID 1159567); type: functional, cell-based
[12] = growth inhibition of PfATP4-mutant resistant parasites – NITD609-resistant line, SYBR Green, dry powder, dose response (AID 1159571); type: functional, cell-based;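 further: parasites synchronized at ring stage by sorbitol before testing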

T4 sequence (Q92731 whole entry): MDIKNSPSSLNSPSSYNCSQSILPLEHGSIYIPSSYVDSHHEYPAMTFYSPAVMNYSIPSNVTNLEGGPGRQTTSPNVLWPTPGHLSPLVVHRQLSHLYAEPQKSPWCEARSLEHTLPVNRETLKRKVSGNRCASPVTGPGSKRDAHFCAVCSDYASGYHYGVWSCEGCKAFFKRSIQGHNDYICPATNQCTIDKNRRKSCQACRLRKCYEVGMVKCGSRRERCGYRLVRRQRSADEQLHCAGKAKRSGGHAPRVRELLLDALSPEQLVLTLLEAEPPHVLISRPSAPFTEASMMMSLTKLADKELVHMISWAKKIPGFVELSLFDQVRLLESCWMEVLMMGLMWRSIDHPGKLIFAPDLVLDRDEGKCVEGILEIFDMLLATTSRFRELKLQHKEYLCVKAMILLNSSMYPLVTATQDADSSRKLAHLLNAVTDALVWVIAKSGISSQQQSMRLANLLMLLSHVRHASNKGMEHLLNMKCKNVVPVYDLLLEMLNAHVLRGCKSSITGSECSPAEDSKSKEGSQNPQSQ

CCc1nnc(NC(=O)CSc2ccc(-c3nc4ccccc4[nH]3)cn2)s1
IC50 [1]: 17.1 µM (not active)
IC50 [2]: > 111 µM (not active)

Sc1nnc(-c2cc(-c3ccco3)[nH]n2)n1-c1ccccc1Cl
IC50 [3]: 5.55 µM (active)
IC50 (Estrogen receptor beta [4]): > 50 µM (not active)
IC50 (Estrogen receptor beta [5]): > 109 µM (not active)

COc1ccc(Cc2nnc(NC(=O)Nc3ccccc3F)s2)cc1OC
IC50 [1]: 6.66 µM (active)
IC50 [2]: > 111 µM (not active)

CSc1ccccc1NC(=O)Cn1nnc(-c2ccc(S(C)(=O)=O)cc2)n1
IC50 [1]: 6.17 µM (active)
IC50 [2]: > 111 µM (not active)

O=C(Oc1cccc(-c2cnc3ccccc3n2)c1)c1ccco1
EC50 (Estrogen receptor): 26.9 µM (active)

CCC(C(=O)Nc1cc(C(=O)O)ccc1C)c1ccccc1 (stereo not drawn)
CC50 [6]: > 40 µM (active)

CCOC(=O)C(C)Oc1cccc2c(=O)n(CC(=O)Nc3ccc4c(c3)OCCO4)ccc12 (stereo not drawn)
EC50 (Estrogen receptor): 12.6 µM (not active)

C[C@@H]1CN([C@@H](C)CO)C(=O)Cc2cc(NC(=O)Nc3ccc(C(F)(F)F)cc3)ccc2O[C@H]1CN(C)Cc1ccc(-c2ccccc2)cc1
AC50 [7]: 1.09 µM (active)
AC50 [8]: 19.3 µM (active)
AC50 [9]: 1.11 µM (active)
AC50 [10]: 21.4 µM (active)
AC50 [11]: 1.8 µM (active)
AC50 [12]: 1.83 µM (active)
